US20090215725A1, “Substituted 4-aminocyclohexane derivatives” (GRUNENTHAL GMBH, priority 2008, published 2009)

Test system: Male Sprague Dawley rats
Test: Chung model: mononeuropathic pain after spinal nerve ligation (mechanical allodynia, von Frey withdrawal threshold)
Type: in vivo
Conditions: rat, FIG. 1

Question: What does the source list for `CN(C)C1(c2ccccc2)CCC(COCc2c[nH]c3ccc(F)cc23)CC1` (stereo not drawn) [Example 10, 1-Phenyl-4-(((5-fluoro-1H-indol-3-yl)methoxy)methyl)-N,N-dimethylcyclohexanamine]?
Answer: effect on the undamaged, contralateral side (contralateral rear paw, tested dose): only a very small and statistically insignificant effect; rise in the withdrawal threshold (ipsilateral rear paw, spinal nerve ligation, allodynia fall from approx. 55 g to 25 g): over 40 g; allodynia condition (effectiveness in neuropathic pain) (ipsilateral side, spinal nerve ligation): almost completely relieved
